Laboratory results published in patent US20030059511A1, “Sweetener compositions and uses thereof” (AJINOMOTO CO., INC., priority 1999, published 2003).

Assays:
[1] = Equivalent concentration of bitter taste (Example 30), calcium lactate; assay type: in vivo, human; conditions: derivative 4 2.2 ppm; calcium lactate 1500 ppm; no addition 0.054
Protocol: (§1) With respect to the solution produced by adding derivative 1 (the product of the present invention), or adding nothing (no addition; the reference product) in the concentration shown in the following table 4 to the amino acid solution (2% solution of arginine by weight), the sensory evaluation was performed (using 10 panelists), and the equivalent concentration of bitter taste was determined. The results were shown in the table 4, wherein the equivalent concentration of bitter taste was shown in the concentration of aqueous solution of anhydrous caffeine which is a substance of bitter taste.
(§2) With respect to the solution produced by adding derivative 4 (2.2 ppm) to each of the substances of Quinine sulfate (39 ppm), anhydrous caffeine (2000 ppm), ferrous citrate (50 ppm), calcium lactate (1500 ppm), and thiamine hydrochloride (5000 ppm) (the product of the present invention), or adding nothing thereto (no addition; the reference product) the reference product (no addition), the sensory evaluation was performed (using 10 panelists), and the equivalent concentration of bitter taste was determined in the same way as that described in Example 28, and shown in table 6.

[2] = Equivalent concentration of bitter taste (Example 30), anhydrous caffeine; assay type: in vivo, human; conditions: derivative 4 2.2 ppm; anhydrous caffeine 2000 ppm; no addition 0.205
Protocol: as §1, §2

## COC(=O)[C@H](Cc1ccccc1)NC(=O)[C@H](CC(=O)O)NCCC(C)(C)c1ccc(O)c(C)c1 [Derivative 4, N-[N-[3-(3-methyl-4-hydroxyphenyl)-3-methylbutyl]-L-α-aspartyl]-L-phenylalanine 1-methyl ester]
[1]
  Equivalent concentration of bitter taste (Amount of anhydrous caffeine g/100 g), Calcium lactate: 0.025 g/100 g
[2]
  Equivalent concentration of bitter taste (Amount of anhydrous caffeine g/100 g), Caffeine (anhydrous): 0.045 g/100 g
